From ChEMBL document CHEMBL4765467, “Improving Thermodynamic Stability and Anticoagulant Activity of a Thrombin Binding Aptamer by Incorporation of 8-trifluoromethyl-2'-deoxyguanosine” (J Med Chem, 2021)
Active and inactive are the calls of the source. The calls are words filed in the database; no cut-off is given here.

What was measured:
Plasma [1] = experiment: Anticoagulant activity in human plasma assessed prothrombin time at 0.25 to 1 uM; type: functional; conditions: dose 0.25-1 µM
[2] = Stability in 50% human plasma assessed as compound degradation at 50 uM measured within 3 hrs by PAGE analysis; type: ADME, cell-free
[3] = Thermodynamic stability assessed as change in melting temperature by CD spectroscopy relative to TBA; type: physicochemical
Plasma [4] = experiment: Anticoagulant activity in human plasma assessed prothrombin time in presence of complementary sequence of TBA; type: functional, cell-free
Plasma [5] = experiment: Anticoagulant activity in human plasma assessed prothrombin time in presence of 1.5 fold complementary sequence of TBA; type: functional, cell-free
[6] = Stability in 50% human plasma assessed as compound degradation at 50 uM measured within 3 hrs by PAGE analysis relative to TBA; type: ADME, cell-free

## Cc1cn([C@H]2C[C@H](OP(=O)(O)OC[C@H]3O[C@@H](n4cnc5c(=O)[nH]c(N)nc54)C[C@@H]3OP(=O)(O)OC[C@H]3O[C@@H](n4cnc5c(=O)[nH]c(N)nc54)C[C@@H]3OP(=O)(O)OC[C@H]3O[C@@H](n4cc(C)c(=O)[nH]c4=O)C[C@@H]3OP(=O)(O)OC[C@H]3O[C@@H](n4cnc5c(=O)[nH]c(N)nc54)C[C@@H]3OP(=O)(O)OC[C@H]3O[C@@H](n4cc(C)c(=O)[nH]c4=O)C[C@@H]3OP(=O)(O)OC[C@H]3O[C@@H](n4c(C(F)(F)F)nc5c(=O)[nH]c(N)nc54)C[C@@H]3OP(=O)(O)OC[C@H]3O[C@@H](n4cnc5c(=O)[nH]c(N)nc54)C[C@@H]3OP(=O)(O)OC[C@H]3O[C@@H](n4cc(C)c(=O)[nH]c4=O)C[C@@H]3OP(=O)(O)OC[C@H]3O[C@@H](n4cc(C)c(=O)[nH]c4=O)C[C@@H]3OP(=O)(O)OC[C@H]3O[C@@H](n4cnc5c(=O)[nH]c(N)nc54)C[C@@H]3OP(=O)(O)OC[C@H]3O[C@@H](n4cnc5c(=O)[nH]c(N)nc54)C[C@@H]3O)[C@@H](COP(=O)(O)O[C@H]3C[C@H](n4cc(C)c(=O)[nH]c4=O)O[C@@H]3COP(=O)(O)O[C@H]3C[C@H](n4cnc5c(=O)[nH]c(N)nc54)O[C@@H]3COP(=O)(O)O[C@H]3C[C@H](n4cnc5c(=O)[nH]c(N)nc54)O[C@@H]3COP(=O)(O)O)O2)c(=O)[nH]c1=O
Plasma [1]
  PT: 21.9 s
[2]
  Stabilty: Unstable
[3]
  deltaTm: 7.6 °C

## Cc1cn([C@H]2C[C@H](OP(=O)(O)OC[C@H]3O[C@@H](n4cnc5c(=O)[nH]c(N)nc54)C[C@@H]3OP(=O)(O)OC[C@H]3O[C@@H](n4cnc5c(=O)[nH]c(N)nc54)C[C@@H]3O)[C@@H](COP(=O)(O)O[C@H]3C[C@H](n4cc(C)c(=O)[nH]c4=O)O[C@@H]3COP(=O)(O)O[C@H]3C[C@H](n4cnc5c(=O)[nH]c(N)nc54)O[C@@H]3COP(=O)(O)O[C@H]3C[C@H](n4cnc5c(=O)[nH]c(N)nc54)O[C@@H]3COP(=O)(O)O[C@H]3C[C@H](n4cc(C)c(=O)[nH]c4=O)O[C@@H]3COP(=O)(O)O[C@H]3C[C@H](n4cnc5c(=O)[nH]c(N)nc54)O[C@@H]3COP(=O)(O)O[C@H]3C[C@H](n4cc(C)c(=O)[nH]c4=O)O[C@@H]3COP(=O)(O)O[C@H]3C[C@H](n4cnc5c(=O)[nH]c(N)nc54)O[C@@H]3COP(=O)(O)O[C@H]3C[C@H](n4c(C(F)(F)F)nc5c(=O)[nH]c(N)nc54)O[C@@H]3COP(=O)(O)O[C@H]3C[C@H](n4cc(C)c(=O)[nH]c4=O)O[C@@H]3COP(=O)(O)O[C@H]3C[C@H](n4cc(C)c(=O)[nH]c4=O)O[C@@H]3COP(=O)(O)O[C@H]3C[C@H](n4cnc5c(=O)[nH]c(N)nc54)O[C@@H]3COP(=O)(O)O[C@H]3C[C@H](n4cnc5c(=O)[nH]c(N)nc54)O[C@@H]3COP(=O)(O)O)O2)c(=O)[nH]c1=O
Plasma [1]
  PT: 26 s
[2]
  Stabilty: Unstable
[3]
  deltaTm: 8.1 °C

## Cc1cn([C@H]2C[C@H](OP(=O)(O)OC[C@H]3O[C@@H](n4cnc5c(=O)[nH]c(N)nc54)C[C@@H]3OP(=O)(O)OC[C@H]3O[C@@H](n4cc(C)c(=O)[nH]c4=O)C[C@@H]3OP(=O)(O)OC[C@H]3O[C@@H](n4cnc5c(=O)[nH]c(N)nc54)C[C@@H]3OP(=O)(O)OC[C@H]3O[C@@H](n4cnc5c(=O)[nH]c(N)nc54)C[C@@H]3OP(=O)(O)OC[C@H]3O[C@@H](n4cc(C)c(=O)[nH]c4=O)C[C@@H]3OP(=O)(O)OC[C@H]3O[C@@H](n4cc(C)c(=O)[nH]c4=O)C[C@@H]3OP(=O)(O)OC[C@H]3O[C@@H](n4cnc5c(=O)[nH]c(N)nc54)C[C@@H]3OP(=O)(O)OC[C@H]3O[C@@H](n4cnc5c(=O)[nH]c(N)nc54)C[C@@H]3O)[C@@H](COP(=O)(O)O[C@H]3C[C@H](n4cc(C)c(=O)[nH]c4=O)O[C@@H]3COP(=O)(O)O[C@H]3C[C@H](n4cnc5c(=O)[nH]c(N)nc54)O[C@@H]3COP(=O)(O)O[C@H]3C[C@H](n4cnc5c(=O)[nH]c(N)nc54)O[C@@H]3COP(=O)(O)O[C@H]3C[C@H](n4cc(C)c(=O)[nH]c4=O)O[C@@H]3COP(=O)(O)O[C@H]3C[C@H](n4cc(C)c(=O)[nH]c4=O)O[C@@H]3COP(=O)(O)O[C@H]3C[C@H](n4cnc5c(=O)[nH]c(N)nc54)O[C@@H]3COP(=O)(O)O[C@H]3C[C@H](n4cnc5c(=O)[nH]c(N)nc54)O[C@@H]3COP(=O)(O)O)O2)c(=O)[nH]c1=O
Plasma [1]
  PT: 19.2 s
Plasma [4]
  Activity: inactive
[2]
  Stabilty: Stable
Plasma [5]
  Activity: inactive

## Cc1cn([C@H]2C[C@H](OP(=O)(O)OC[C@H]3O[C@@H](n4cnc5c(=O)[nH]c(N)nc54)C[C@@H]3OP(=O)(O)OC[C@H]3O[C@@H](n4cnc5c(=O)[nH]c(N)nc54)C[C@@H]3OP(=O)(O)OC[C@H]3O[C@@H](n4cc(C)c(=O)[nH]c4=O)C[C@@H]3OP(=O)(O)OC[C@H]3O[C@@H](n4cnc5c(=O)[nH]c(N)nc54)C[C@@H]3OP(=O)(O)OC[C@H]3O[C@@H](n4cc(C)c(=O)[nH]c4=O)C[C@@H]3OP(=O)(O)OC[C@H]3O[C@@H](n4cnc5c(=O)[nH]c(N)nc54)C[C@@H]3OP(=O)(O)OC[C@H]3O[C@@H](n4cnc5c(=O)[nH]c(N)nc54)C[C@@H]3OP(=O)(O)OC[C@H]3O[C@@H](n4cc(C)c(=O)[nH]c4=O)C[C@@H]3OP(=O)(O)OC[C@H]3O[C@@H](n4cc(C)c(=O)[nH]c4=O)C[C@@H]3OP(=O)(O)OC[C@H]3O[C@@H](n4cnc5c(=O)[nH]c(N)nc54)C[C@@H]3OP(=O)(O)OC[C@H]3O[C@@H](n4cnc5c(=O)[nH]c(N)nc54)C[C@@H]3O)[C@@H](COP(=O)(O)O[C@H]3C[C@H](n4cc(C)c(=O)[nH]c4=O)O[C@@H]3COP(=O)(O)O[C@H]3C[C@H](n4cnc5c(=O)[nH]c(N)nc54)O[C@@H]3COP(=O)(O)O[C@H]3C[C@H](n4c(C(F)(F)F)nc5c(=O)[nH]c(N)nc54)O[C@@H]3COP(=O)(O)O)O2)c(=O)[nH]c1=O
Plasma [1]
  PT: 18.3 s
[2]
  Stabilty: Unstable
[3]
  deltaTm: 5.7 °C

## Cc1cn([C@H]2C[C@H](OP(=O)(O)OC[C@H]3O[C@@H](n4cnc5c(=O)[nH]c(N)nc54)C[C@@H]3OP(=O)(O)OC[C@H]3O[C@@H](n4cnc5c(=O)[nH]c(N)nc54)C[C@@H]3OP(=O)(O)OC[C@H]3O[C@@H](n4cc(C)c(=O)[nH]c4=O)C[C@@H]3OP(=O)(O)OC[C@H]3O[C@@H](n4cnc5c(=O)[nH]c(N)nc54)C[C@@H]3OP(=O)(O)OC[C@H]3O[C@@H](n4cc(C)c(=O)[nH]c4=O)C[C@@H]3OP(=O)(O)OC[C@H]3O[C@@H](n4cnc5c(=O)[nH]c(N)nc54)C[C@@H]3OP(=O)(O)OC[C@H]3O[C@@H](n4cnc5c(=O)[nH]c(N)nc54)C[C@@H]3OP(=O)(O)OC[C@H]3O[C@@H](n4cc(C)c(=O)[nH]c4=O)C[C@@H]3OP(=O)(O)OC[C@H]3O[C@@H](n4cc(C)c(=O)[nH]c4=O)C[C@@H]3OP(=O)(O)OC[C@H]3O[C@@H](n4cnc5c(=O)[nH]c(N)nc54)C[C@@H]3OP(=O)(O)OC[C@H]3O[C@@H](n4cnc5c(=O)[nH]c(N)nc54)C[C@@H]3O)[C@@H](COP(=O)(O)O[C@H]3C[C@H](n4cc(C)c(=O)[nH]c4=O)O[C@@H]3COP(=O)(O)O[C@H]3C[C@H](n4c(C(F)(F)F)nc5c(=O)[nH]c(N)nc54)O[C@@H]3COP(=O)(O)O[C@H]3C[C@H](n4cnc5c(=O)[nH]c(N)nc54)O[C@@H]3COP(=O)(O)O)O2)c(=O)[nH]c1=O
Plasma [1]
  PT: 9.9 s
[2]
  Stabilty: Unstable
[3]
  deltaTm: -17.3 °C

## Cc1cn([C@H]2C[C@H](OP(=O)(O)OC[C@H]3O[C@@H](n4c(C(F)(F)F)nc5c(=O)[nH]c(N)nc54)C[C@@H]3OP(=O)(O)OC[C@H]3O[C@@H](n4cnc5c(=O)[nH]c(N)nc54)C[C@@H]3OP(=O)(O)OC[C@H]3O[C@@H](n4cc(C)c(=O)[nH]c4=O)C[C@@H]3OP(=O)(O)OC[C@H]3O[C@@H](n4cnc5c(=O)[nH]c(N)nc54)C[C@@H]3OP(=O)(O)OC[C@H]3O[C@@H](n4cc(C)c(=O)[nH]c4=O)C[C@@H]3OP(=O)(O)OC[C@H]3O[C@@H](n4c(C(F)(F)F)nc5c(=O)[nH]c(N)nc54)C[C@@H]3OP(=O)(O)OC[C@H]3O[C@@H](n4cnc5c(=O)[nH]c(N)nc54)C[C@@H]3OP(=O)(O)OC[C@H]3O[C@@H](n4cc(C)c(=O)[nH]c4=O)C[C@@H]3OP(=O)(O)OC[C@H]3O[C@@H](n4cc(C)c(=O)[nH]c4=O)C[C@@H]3OP(=O)(O)OC[C@H]3O[C@@H](n4c(C(F)(F)F)nc5c(=O)[nH]c(N)nc54)C[C@@H]3OP(=O)(O)OC[C@H]3O[C@@H](n4cnc5c(=O)[nH]c(N)nc54)C[C@@H]3O)[C@@H](COP(=O)(O)O[C@H]3C[C@H](n4cc(C)c(=O)[nH]c4=O)O[C@@H]3COP(=O)(O)O[C@H]3C[C@H](n4cnc5c(=O)[nH]c(N)nc54)O[C@@H]3COP(=O)(O)O[C@H]3C[C@H](n4c(C(F)(F)F)nc5c(=O)[nH]c(N)nc54)O[C@@H]3COP(=O)(O)O)O2)c(=O)[nH]c1=O
Plasma [1]
  PT: 18.6 s
[6]
  Stabilty: Stable
[2]
  Stabilty: Unstable
[3]
  deltaTm: 30 °C
Plasma [5]
  Activity: Active

## Cc1cn([C@H]2C[C@H](OP(=O)(O)OC[C@H]3O[C@@H](n4cnc5c(=O)[nH]c(N)nc54)C[C@@H]3OP(=O)(O)OC[C@H]3O[C@@H](n4cnc5c(=O)[nH]c(N)nc54)C[C@@H]3OP(=O)(O)OC[C@H]3O[C@@H](n4cc(C)c(=O)[nH]c4=O)C[C@@H]3OP(=O)(O)OC[C@H]3O[C@@H](n4c(C(F)(F)F)nc5c(=O)[nH]c(N)nc54)C[C@@H]3OP(=O)(O)OC[C@H]3O[C@@H](n4cc(C)c(=O)[nH]c4=O)C[C@@H]3OP(=O)(O)OC[C@H]3O[C@@H](n4cnc5c(=O)[nH]c(N)nc54)C[C@@H]3OP(=O)(O)OC[C@H]3O[C@@H](n4cnc5c(=O)[nH]c(N)nc54)C[C@@H]3OP(=O)(O)OC[C@H]3O[C@@H](n4cc(C)c(=O)[nH]c4=O)C[C@@H]3OP(=O)(O)OC[C@H]3O[C@@H](n4cc(C)c(=O)[nH]c4=O)C[C@@H]3OP(=O)(O)OC[C@H]3O[C@@H](n4cnc5c(=O)[nH]c(N)nc54)C[C@@H]3OP(=O)(O)OC[C@H]3O[C@@H](n4cnc5c(=O)[nH]c(N)nc54)C[C@@H]3O)[C@@H](COP(=O)(O)O[C@H]3C[C@H](n4cc(C)c(=O)[nH]c4=O)O[C@@H]3COP(=O)(O)O[C@H]3C[C@H](n4cnc5c(=O)[nH]c(N)nc54)O[C@@H]3COP(=O)(O)O[C@H]3C[C@H](n4cnc5c(=O)[nH]c(N)nc54)O[C@@H]3COP(=O)(O)O)O2)c(=O)[nH]c1=O
Plasma [1]
  PT: 19.1 s
[2]
  Stabilty: Unstable
[3]
  deltaTm: -3.1 °C
